Experimental data: patent US12636271B2, “Combination comprising N-acetyl-L-cysteine and its use” (IASOMAI AB, priority 2011, dated 2026)

Experiments:
HL60 cells = assay: Antioxidant effect against menadione oxidative stimulus, CM-H2DCFDA fluorescence; assay type: cell-based, human; conditions: concentrations as in FIGS. 5-7
K562 cells = assay: as above; assay type: cell-based, human; conditions: 0.2 mM menadione, 0.4 mM NAC, 0.2 mM SeMet, 2 mM Mel (FIG. 4)
Method: The human lymphoblastoid HL60 and the proerythoblastoid K562 cell lines were used, grown at 37° C. in RPMI 1640 medium (Invitrogen, Gibco, Milano, Italy), supplemented with 10% fetal bovine serum, 5 μg/ml penicillin, 5 μg/ml streptomycin, 2 mM glutamine, and routinely subcultured three times a week. Cells were treated either with menadione alone (control), with NAC only, with NAC+Se-methionine (SeMet), with NAC+Mel, or with NAC+SeMet+Mel. In cases of SeMet supplementation, such supplementation was performed two days before experiments, by using a SeMet solution in buffer (concentrations as indicated in description of FIGS. 4-7). […]
The effect of NAC, Mel, SeMet and of a combination of these substances in protecting the cells against an oxidative stimulus was detected by using the fluorescent probe 5-(and-6)-chloromethyl-2′,7′-dichlorodihydrofluorescein diacetate, acetyl ester (CM-H2DCFDA) (Invitrogen, Molecular Probes). […] The increase in hydroperoxides (mainly H2O2) within the cell is thus monitored by increase in fluorescence. […]
Cells were counted, and care was taken to keep the ratio between cells and the fluorescent probe constant. […] Two μ1 of a solution of CM-H2DCFDA in DMSO were then added and the fluorescence intensity read versus time. […] During intensity readings, samples were subjected to continuous mild stirring. […]

[1] = tested on: patients suffering from varying kinds of anxiety; assay: Anxiety trial, rated pain intensity before and after treatment; assay type: in vivo, human; conditions: n = 20
Text: In a method in accordance with embodiments of this disclosure a medical product comprising NAC, SeMet and Mel in accordance with embodiments was given to a plurality of groups of patients in the treatment of anxiety. The method of treating an anxiety disorder comprises administering to a patient in need thereof, a medical product consisting of one or more excipients and active agents consisting of (i) N-acetyl-L-cysteine; (ii) selenium in the form of selenomethionine; and (iii) melatonin and/or physiologically acceptable salts thereof.
(§1) In a trial the NAC, SeMet and Mel medical product, herein also called NAC-factor 3, was administered to the groups of patients in a set-up to compare the anxiolytic effect of placebo, NAC and the medical product consisting of NAC, SeMet and Mel in anxiolysis. The groups of patients were ordered according to the following different causes of anxiety: Sporadic anxiety (i.e. healthy patients) (SA), Social phobia (SP), Agoraphobia (AP), Panic disorder (PD), Generalized anxiety disorder (GAD), Obsessive-compulsive disorders (OCD), and Posttraumatic stress disorder (PTSD).
(§2) The patients rated their experienced intensity of pain from the anxiety before and after being exposed to medication with one of placebo, NAC and the medical product consisting of NAC, SeMet and Mel (in short NACSeMel), respectively. The subjective pain-intensity was rated by the patients using a 5 graded verbal rating scale ranging from None/Ignorable=0, Slight=1, Moderate=2, Great=3, Excruciating=4, where the corresponding numbers 0-4 are used to illustrate the responses in accompanying graphs.
(§3) In studying the results of the rating, the change in rating that the group delivered was expressed as a measure of the group's relative position RP in order to assess whether there was a systematic change in position on the rating scale. The relative position, i.e. the change in rating is negative if the rating indicates less pain intensity after exposure to treatment compared to before treatment, and positive if the rating indicates higher pain intensity after exposure to treatment. A range of values for the relative position RP was calculated for a 95% confidence interval CI.

[2] = tested on: patients suffering from generalized anxiety disorder; assay: as above; assay type: in vivo, human; conditions: n = 8
Method: as §1, §2, §3
(§4) The corresponding treatment design as described above was used with patients rating the pain intensity for specific causes of anxiety, viz. Recurrent sporadic social anxiety, Social Phobia/Agoraphobia, Panic disorder, Generalized anxiety disorder, Obsessive compulsive disorder and Posttraumatic stress disorder. The results are presented in the following Table 3 and in FIG. 11-FIG. 16.

[3] = tested on: patients suffering from obsessive compulsive disorder; assay: as above; assay type: in vivo, human; conditions: n = 7
Method: as §1, §2, §3, §4

[4] = tested on: patients suffering from panic disorder; assay: as above; assay type: in vivo, human; conditions: n = 7
Method: as §1, §2, §3, §4

[5] = tested on: patients suffering from posttraumatic stress disorder; assay: as above; assay type: in vivo, human; conditions: n = 5
Method: as §1, §2, §3, §4

[6] = tested on: patients suffering from recurrent sporadic social anxiety; assay: as above; assay type: in vivo, human; conditions: n = 12
Method: as §1, §2, §3, §4

[7] = tested on: patients suffering from social phobia/agoraphobia; assay: as above; assay type: in vivo, human; conditions: n = 6
Method: as §1, §2, §3, §4

[8] = tested on: patients suffering from sporadic insomnia; assay: Sporadic insomnia trial, rated intensity before and after treatment; assay type: in vivo, human; conditions: group of 24 patients
[9] = tested on: patients suffering from fatigue; assay: Fatigue trial, rated intensity before and after treatment; assay type: in vivo, human; conditions: group of 20 patients
Text: In a method, conducted in a similar manner to that described in the previous Examples 6 and 7, and in accordance with embodiments of this disclosure a medical product comprising NAC, SeMet and Mel in accordance with embodiments was given to a plurality of groups of patients in the treatment of fatigue. The method of treating fatigue comprises administering to a patient in need thereof, a medical product consisting of one or more excipients and active agents consisting of (i) N-acetyl-L-cysteine; (ii) selenium in the form of selenomethionine; and (iii) melatonin and/or physiologically acceptable salts thereof. Fatigue may be related and due to anxiety, and/or to sporadic insomnia or have other independent causes. Fatigue is defined as a state of tiredness that remain despite rest or sleep, and that tend to impair cognitive and/or physical ability and performance.
In a trial the NAC, SeMet and Mel medical product, herein also called NAC-factor 3, was administered to a group of patients in a set-up to compare the effect of placebo, NAC and the medical product consisting of NAC, SeMet and Mel in treatment of fatigue.
as §2, with “fatigue” for “pain from the anxiety”, “intensity” for “pain-intensity”
as §3, with “less” for “less pain”, “higher” for “higher pain”

[10] = negative = less intensity after treatment

## COc1ccc2[nH]cc(CCNC(C)=O)c2c1 [Mel, melatonin]
HL60 cells
  oxidative response (slope of DCFDA fluorescence intensity increase) after menadione: unfavorable pro-oxidant effect

## CC(=O)N[C@@H](CS)C(=O)O [NAC, N-acetyl-L-cysteine]
HL60 cells
  oxidative response (slope of DCFDA fluorescence intensity increase) after menadione: relevant reduction in the kinetics of this intensity increase
K562 cells
  oxidative response (slope of DCFDA fluorescence intensity increase) after menadione: relevant reduction in the kinetics of this intensity increase
[1]
  number of patients that rated higher pain intensity after treatment: 5 patients
  number of patients that rated lower pain intensity after treatment: 9 patients
  patients that rated higher pain intensity after treatment: 25%
  patients that rated lower pain intensity after treatment: 40%
  patients that rated unchanged level: 35%
[2]
  number of patients that rated lower: 7 patients
  number of patients that rated unchanged level: 1 patients
  relative position RP: RP −0.81
[3]
  number of patients that rated higher: 1 patients
  number of patients that rated lower: 4 patients
  number of patients that rated unchanged level: 2 patients
  relative position RP: RP −0.27
[4]
  number of patients that rated lower: 3 patients
  number of patients that rated unchanged level: 4 patients
  relative position RP: RP −0.35
[5]
  number of patients that rated lower: 3 patients
  number of patients that rated unchanged level: 2 patients
  relative position RP: RP −0.60
[6]
  number of patients that rated lower: 9 patients
  number of patients that rated unchanged level: 2 patients
  relative position RP: RP −0.46
[7]
  number of patients that rated lower: ↓3, ~3 patients
  number of patients that rated unchanged level: ↓3, ~3 patients
  relative position RP: RP −0.31
[8]
  number of patients that rated lower sporadic insomnia: 15 patients
  number of patients that rated unchanged intensity: 9 patients
  patients that rated lower sporadic insomnia: 62%
  patients that rated unchanged intensity: 38%
[8]; [10]
  relative position RP: −0.37 (95% CI −0.49 to −0.25)
[9]
  number of patients that rated increased level of fatigue: 3 patients
  number of patients that rated lower fatigue: 9 patients
  number of patients that rated unchanged intensity of fatigue: 8 patients
  patients that rated increased level of fatigue: 15%
  patients that rated lower fatigue: 45%
  patients that rated unchanged intensity of fatigue: 40%
[9]; [10]
  relative position RP: −0.26 (95% CI −0.49 to −0.03)

## C[Se]CC[C@H](N)C(=O)O [SeMet, selenomethionine]
HL60 cells
  oxidative response (slope of DCFDA fluorescence intensity increase) after menadione: unfavorable pro-oxidant effect
